In US12692232B2, “Indole carboxamide compound, preparation therefor and use thereof” (NANJING RUISHUNING MEDICAL TECHNOLOGY CO., LTD., priority 2021, dated 2026):

Assays:
[1] = test system: lipopolysaccharide (LPS)-induced mouse model of sepsis; experiment: LPS-induced mouse model of sepsis, survival analysis; format: in vivo; conditions: for average survival time: LPS 40 mg/kg i.p., LPS group 15.4±2.9; for time after which the mice began to die: LPS 40 mg/kg i.p. 30 minutes later, LPS group about 12 hours
Experimental: A lipopolysaccharide (LPS)-induced mouse model of sepsis was used to determine the preventive and therapeutic effect of the compounds of the present invention (as exemplified by compounds 1-1 and 2-1 obtained in Examples 1 and 3) against sepsis. The method was as follows:
Experimental animals: 60 male C57BL/6J mice aged 6-8 weeks. The experimental animals were housed in an environment with room temperature of 25±2° C., 12 hours dark/12 hours light, and fed with conventional feed.
Survival analysis experiment: the mice were randomly divided into 6 groups of 10 mice each, namely, i) a solvent control group: each animal was administered 0.9% saline; ii) a sepsis model group (LPS group): each animal was injected intraperitoneally with LPS at a dose of 40 mg/kg; iii) a treatment group of medium-dose compound 1-1 (LPS+25 mg/kg of compound 1-1 obtained in Example 1): each animal was administered compound 1-1 by gavage at a dose of 25 mg/kg, followed by intraperitoneal injection of LPS at a dose of 40 mg/kg 30 minutes later; iv) a treatment group of high-dose compound 1-1 (LPS+50 mg/kg of compound 1-1 obtained in Example 1): each animal was administered compound 1-1 by gavage at a dose of 50 mg/kg, followed by intraperitoneal injection of LPS at a dose of 40 mg/kg 30 minutes later; v) a treatment group of high-dose compound 2-1 (LPS+50 mg/kg compound 2-1 obtained in Example 2): each animal was administered compound 2-1 by gavage at a dose of 50 mg/kg, followed by intraperitoneal injection of LPS at a dose of 40 mg/kg 30 minutes later; vi) a treatment group of medium-dose indole analogue 3-[(1-methyl-1H-indole-2-carbonyl)amino]propionic acid disclosed in CN2019107285315 (LPS+25 mg/kg of indole analogue 3-[(1-methyl-1H-indole-2-carbonyl)amino]propionic acid disclosed in CN2019107285315). The survival of the mice in each group was monitored, the time of death of the mice was recorded, and the average survival time of the animals in each group was calculated.

TRPC5 protein = molecular target: T1, TRPC5 protein (Homo sapiens, UniProt Q9UL62); experiment: MST binding to TRPC5 protein
T1 sequence (Q9UL62 1-973): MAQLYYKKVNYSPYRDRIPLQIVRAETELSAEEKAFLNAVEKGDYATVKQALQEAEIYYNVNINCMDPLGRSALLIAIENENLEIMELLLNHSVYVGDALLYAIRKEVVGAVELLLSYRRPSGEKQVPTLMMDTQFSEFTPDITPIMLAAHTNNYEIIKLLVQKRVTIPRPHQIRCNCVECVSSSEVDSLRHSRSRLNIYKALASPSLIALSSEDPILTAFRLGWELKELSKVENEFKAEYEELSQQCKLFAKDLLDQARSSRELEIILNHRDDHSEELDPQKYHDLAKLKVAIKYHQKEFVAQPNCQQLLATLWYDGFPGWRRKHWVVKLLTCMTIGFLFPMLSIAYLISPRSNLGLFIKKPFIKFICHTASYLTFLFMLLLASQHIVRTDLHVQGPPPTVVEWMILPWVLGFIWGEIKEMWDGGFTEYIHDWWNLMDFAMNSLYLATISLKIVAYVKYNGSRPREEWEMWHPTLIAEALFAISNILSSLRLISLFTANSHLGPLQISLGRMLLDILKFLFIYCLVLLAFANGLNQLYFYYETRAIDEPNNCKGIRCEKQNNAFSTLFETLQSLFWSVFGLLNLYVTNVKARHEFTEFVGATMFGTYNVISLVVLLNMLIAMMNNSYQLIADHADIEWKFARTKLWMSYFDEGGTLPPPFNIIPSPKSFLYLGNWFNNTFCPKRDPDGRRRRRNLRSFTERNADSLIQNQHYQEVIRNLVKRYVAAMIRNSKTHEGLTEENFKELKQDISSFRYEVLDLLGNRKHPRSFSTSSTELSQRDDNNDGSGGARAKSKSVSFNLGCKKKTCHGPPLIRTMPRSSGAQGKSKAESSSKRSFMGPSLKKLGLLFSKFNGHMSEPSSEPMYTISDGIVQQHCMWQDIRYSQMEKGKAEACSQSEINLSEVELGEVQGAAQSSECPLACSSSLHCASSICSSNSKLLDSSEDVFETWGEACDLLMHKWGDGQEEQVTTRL
Experimental: Preparation and labelling of protein solution: TRPC6 protein dry powder (Alomone Labs, Israel) was prepared into a protein mother solution at a concentration of 10 μM using PBS-Buffer, and 35 μL of the protein stock solution was taken to the Buffer exchange A column, and centrifuged to obtain the Tris-removed protein. 34 μL Labelling Buffer was added to the Tris-removed protein according to the instructions of the Protein Fluorescent Labelling Kit (model L001). After mixing well, 3 μL of NT-647-NHS fluorescent dye was added and thus obtained mixture was incubated for 20 minutes. The protein-dye mixture was transferred to the purification B column, 300 μL of PBS-Buffer was added, and the target protein, i.e. fluorescent labelled protein TRPC6, was collected by centrifugation (with a final concentration of about 2 μM). 180 μL of target protein was mixed with 1620 μL of PBS-Buffer, and then 9 μl of Tween-20 were added thereto. […]
The binding ability of the compounds of the present invention (as exemplified by the compounds 1-1 and 2-1 obtained in Examples 1 and 3) for other TRPC proteins (e.g., TRPC1, TRPC3, TRPC4, TRPC5, and TRPC7) was determined using the microscale thermophoresis (MST) method. […]
The affinity of the compounds of the present invention with TRPC1, TRPC3, TRPC4, TRPC5 and TRPC7 proteins, respectively, was determined by the same method as in Example 5.

Row | Compound | average survival time ([1]; 25 mg/kg) | Kd for binding to TRPCS protein (TRPC5 protein) | time after which the mice began to die ([1]; 25 mg/kg) | time after which the mice began to die ([1]; 50 mg/kg) | average survival time ([1]; 50 mg/kg)
1 | Cn1c(C(=O)NCCC(=O)O)cc2ccccc21 [3-[(1-methyl-1H-indole-2-carbonyl)amino]propionic acid, reference compound] | 19.8 ± 3.1 h |  |  |  | 
2 | CC(=O)OCCCNC(=O)c1c(C=O)c2ccccc2n1C [compound 1-1, propyl 3-[(3-formyl-1-methyl-1H-indole-2-carbonyl)amino]acetate] | 24.8 ± 3.9 h | cannot be measured | 20 h | 28 h | 26.4 ± 4.3 h
3 | Cn1c(C(=O)NCCCOC(=O)c2ccccc2)c(C=O)c2ccccc21 [compound 2-1] |  | cannot be measured |  | 22 h | 24.2 ± 4.9 h
